Results published in patent US20250057849A1, “ANTIVIRAL COMPOSITION COMPRISING NUCLEOSIDE ANALOGUES DERIVED FROM NUCLEIC ACID AND PHARMACEUTICALLY ACCEPTABLE SALT THEREOF” (CJ CheilJedang Corporation, priority 2021, published 2025).
Like-named read-outs stand apart in the source and are kept apart here.

Assays:
IBV = test: microbe, parasite or virus in culture; format: cell-based, Avian Infectious Bronchitis virus; conditions: for IC50: read-out: IBV infection inhibition concentration IC50
[1] = tested on: PRRSV (NA type, VR-2332 strain); test: PRRSV infection inhibition in Marc-145 cells (immunofluorescence staining); format: cell-based, Porcine Reproductive and Respiratory Syndrome virus; conditions: for IC50: Marc-145 cells, 100 TCID50/ml PRRSV, three days after treatment, read-out: PRRSV infection inhibition concentration IC50
MDBK cell line = test: Cytotoxicity, MDBK cell tests; conditions: cytotoxicity
BRV = BRV infection inhibition in MDBK cells (RT-qPCR); format: cell-based, Bovine Rotavirus; conditions: for IC50: MDBK cells, 200 TCID50/well BRV, after 4 days, read-out: BRV infection inhibition concentration IC50
Experimental: The next day, BRV of 200 TCID50/well and inosine, xanthosine and guanosine in the dialdehyde and acyclic diol forms were treated to the cells simultaneously, and after 4 days, using commercialized Viral gene (DNA/RNA) extraction kit (iNtRON, 101410754), RNA was isolated.
For the isolated RNA, using BRV-specific primers (F-[…] , R-[…] ) and realtime RT-qPCR experimental method (95° C., 10 minutes 1 cycle, 95° C., 15 seconds, 60° C., 15 seconds, 72° C., 20 seconds 40 cycles), the antiviral efficacy of the materials was confirmed.

BVDV = BVDV infection inhibition in MDBK cells (RT-qPCR); format: cell-based, Bovine Viral Diarrhea virus; conditions: for IC50: MDBK cells, 200 TCID50/well BVDV, after 4 days, read-out: BVDV infection inhibition concentration IC50
Experimental: The next day, BVDV of 200 TCID50/well and inosine, xanthosine and guanosine in the dialdehyde and acyclic diol forms were treated to the cells simultaneously, and after 4 days, using commercialized Viral gene (DNA/RNA) extraction kit (iNtRON, 101410754), RNA was isolated.
For the isolated RNA, using BVDV-specific primers (F-[…] , R-[…] ) and realtime RT-qPCR experimental method (94° C., 10 minutes 1 cycle, 94° C., 10 seconds, 53° C., 20 seconds, 72° C., 30 seconds 35 cycles), the antiviral efficacy of the materials was verified.

Marc-145 cell line = test: Cytotoxicity (WST-1 / DAPI staining), PRRSV test cells
PK15 cell line = test: Cytotoxicity, PK15 cell test; conditions: read-out: CC50 (Table 3, PCV2); cytotoxicity
PCV2 = PCV2 infection inhibition in PK15 cells (qPCR); format: cell-based, Porcine Circovirus Type 2; conditions: for IC50: PK15 cells, 200 TCID50/well PCV2, after 4 days, read-out: PCV2 infection inhibition concentration IC50
Experimental: For the isolated DNA, using PCV2-specific primers (F-[…] , R-[…] ) and realtime RT-qPCR experimental method (95° C., 30 seconds 1 cycle, 95° C., 20 seconds, 56° C., 60 seconds 40 cycles), the antiviral efficacy of the materials was verified.

MDCK cell line = test: Cytotoxicity, MDCK cell tests; conditions: cytotoxicity
[2] = mouse, in vivo
CPV = CPV infection inhibition in MDCK cells (qPCR); format: cell-based, Canine Parvovirus; conditions: for IC50: MDCK cells, 200 TCID50/well CPV, after 4 days, read-out: CPV infection inhibition concentration IC50 (Table 10)
Experimental: For the isolated DNA, using CPV-specific primers (F-[…] , R-[…] ) and realtime RT-qPCR experimental method (95° C., 5 minutes 1 cycle, 95° C., 10 seconds, 60° C., 30 seconds, 40 cycles), the antiviral efficacy of the materials was confirmed.

[3] = tested on: Influenza virus (2009 pandemic strain, CA04); conditions: for abnormal lesions due to fed materials (liver, stomach, spleen, kidney, heart, small intestine, large intestine): 250 mg/kg
NDV = test: microbe, parasite or virus in culture; format: cell-based, Avian Newcastle Disease virus; conditions: for IC50: read-out: NDV infection inhibition concentration IC50
PRV = test: microbe, parasite or virus in culture; format: cell-based, Porcine Rotavirus; conditions: for IC50: read-out: PRV infection inhibition concentration IC50
[4] = tested on: PEDV (G1a type, SM98 strain); test: PEDV infection inhibition in Vero cells (PEDV detection kit on isolated RNA); format: cell-based, Porcine Epidemic Diarrhea virus; conditions: for IC50: Vero cells, 200 TCID50/ml PEDV, after 2 days, read-out: PEDV infection inhibition concentration IC50
Experimental: The next day, PEDV (G1a type, SM98 strain) of 200 TCID50/ml and inosine, xanthosine and guanosine in the dialdehyde and acyclic diol forms were treated to the cells simultaneously, and after 2 days, using commercialized Viral gene (DNA/RNA) extraction kit (iNtRON, 101410754), RNA was isolated. For the isolated RNA, using commercialized PEDV detection kit (Mediandiagnostics, NS-PED-31), the antiviral efficacy of the materials was verified.

[5] = tested on: Swine Influenza virus (SIV); test: organism not typed; format: cell-based; conditions: for IC50: read-out: SIV infection inhibition concentration IC50
[6] = Cytotoxicity, MDBK cell tests; conditions: bovine, MDBK cells
PRRSV (NA strain) = test: PRRS virus challenge test using piglets
[7] = Cytotoxicity (WST-1 / DAPI staining), PRRSV test cells; conditions: monkey, Marc-145 cells (monkey kidney)
[8] = Cytotoxicity, PK15 cell test; conditions: pig, PK15 cells
[9] = Cytotoxicity, MDCK cell tests; conditions: dog, MDCK cells
in vitro = conditions: monkey
[10] = Water solubility (stated); format: physicochemical
[11] = autopsy at 2 weeks, 50 mg/kg/day oral
[12] = mice, 100 MLD50 CA04, 250 mg/kg intragastric

For Nc1nc2c(ncn2[C@@H](C=O)O[C@@H](C=O)CO)c(=O)[nH]1 [Dialdehyde-guanosine, dialdehyde form of guanosine], the IC50 (IBV; Vero cells, 200 TCID50/well IBV, after 4 days) was 275 µM, the CC50 (Vero cell line) was > 6000 µM and the IC50 [1] was 40 µM. The PRRSV infection inhibition ([1]; at 40 μM) was 50%, the PRRSV infection inhibition ([1]; at 100 μM) was ≥ 90% and the CC50 (MDBK cell line; read-out: CC50 (Table 8, BVDV)) was > 6000 µM. The CC50 (MDBK cell line; read-out: CC50 (Table 9, BRV)) was > 6000 µM, the IC50 (BRV) was 88.3 µM and the IC50 (BVDV) was 2760 µM. For the same compound, the CC50 (Marc-145 cell line; read-out: CC50 (Table 1, PRRSV), cytotoxicity, WST-1) was > 6000 µM, the “cytotoxicity by DAPI staining” value (Marc-145 cell line; up to 1000 μM) was “no cytotoxicity was observed” and the CC50 (PK15 cell line) was > 6000 µM. For the same compound, the IC50 (PCV2) was 96.6 µM, the CC50 (MDCK cell line; read-out: CC50 (Table 5, SIV)) was > 6000 µM and the CC50 (MDCK cell line; read-out: CC50 (Table 10, CPV)) was > 6000 µM. For the same compound, the “time when 50% of the remaining materials was measured (based on AUC values)” value ([2]; ip, 50 mg/kg) was “about 6 hours”, the “time when 50% of the remaining materials was measured (based on AUC values)” value ([2]; po, 250 mg/kg) was “about 9 hours” and the IC50 (CPV) was 2060 µM. For the same compound, the “amount of the virus remaining in the lung tissue (PCR)” value ([3]; mouse, in vivo) was “slightly lower”, the “clinical symptoms after SIV challenge” value ([3]; mouse, in vivo) was “very mild symptoms” and the “lung lesions at autopsy” value ([3]; mouse, in vivo) was “mild lung lesions”. The “survival rate on the 7th day” value ([3]; mouse, in vivo) was 80%, the “survival rate predicted on the 8th day based on all data up to the 7th day” value ([3]; mouse, in vivo) was 60% and the “weight loss after SIV challenge” value ([3]; mouse, in vivo) was “very slight”. The “abnormal lesions due to fed materials (liver, stomach, spleen, kidney, heart, small intestine, large intestine)” value ([3]; mouse, in vivo) was “not observed”, the IC50 (NDV; Vero cells, 200 TCID50/well NDV, after 3 days) was 1120 µM and the IC50 (PRV) was 177 µM. It also gave an IC50 [4] of 157 µM and an IC50 ([5]; MDCK cells, 200 TCID50/well SIV, after 4 days) of 171 µM.

With O=C[C@@H](CO)O[C@H](C=O)n1cnc2c(=O)[nH]c(=O)[nH]c21 [Dialdehyde-xanthosine, dialdehyde form of xanthosine] the IC50 (IBV; Avian coronavirus, Vero, 96 h) was 226 µM, the “SI (selectivity index), IBV” value (IBV; CC50/IC50) was >44.3 and the CC50 (Vero cell line; monkey) was > 10000 µM. The “SI (selectivity index), PRRSV” value ([1]; CC50/IC50) was >133.3, the IC50 [1] was 75 µM and the CC50 [6] was > 10000 µM. The CC50 (MDBK cell line; read-out: CC50 (Table 9, BRV)) was > 10000 µM, the “SI (selectivity index), BRV” value (BRV; CC50/IC50) was >198.1 and the IC50 (BRV; Rotavirus A, 96 h) was 50.5 µM. The “weight gain after PRRSV infection” value (PRRSV (NA strain); 50 mg/kg/day oral twice/day, 14 days) was “no delay in weight gain”, the “PRRS virus in lung by immunohistochemistry” value (PRRSV (NA strain); [11]) was “only a very small amount of viruses were detected” and the “interstitial pneumonia lesions, visual observation of lung” value (PRRSV (NA strain); [11]) was “relatively intact lung”. The “virus titer in lung tissue” value (PRRSV (NA strain); [11]) was “reduced compared to the positive control group”, the IC50 (BVDV; Bovine viral diarrhea virus isolates and strains, 96 h) was 97.8 µM and the “SI (selectivity index), BVDV” value (BVDV; CC50/IC50) was >102.2. For the same compound, the CC50 [7] was > 10000 µM, the CC50 [8] was > 10000 µM and the “SI (selectivity index), PCV2” value (PCV2; CC50/IC50) was >23. The IC50 (PCV2; Porcine circovirus 2, PK-15, 96 h) was 436 µM, the CC50 [9] was > 10000 µM and the CC50 (MDCK cell line; read-out: CC50 (Table 10, CPV)) was > 10000 µM. For the same compound, the CC50 (in vitro) was > 10000 µM, the “half-life tendency compared with guanosine in the dialdehyde form” value [2] was “shorter” and the “time when 50% of the remaining materials was measured (based on AUC values)” value ([2]; ip, 50 mg/kg) was “about 6 hours”. For the same compound, the “time when 50% of the remaining materials was measured (based on AUC values)” value ([2]; po, 250 mg/kg) was “about 6 hours”, the “SI (selectivity index), CPV” value (CPV; CC50/IC50) was >45.2 and the IC50 (CPV; Canine parvovirus, 96 h) was 221 µM. For the same compound, the “survival rate on the 7th day” value [3, 12] was 100%, the “survival rate predicted on the 8th day based on all data up to the 7th day” value [3, 12] was 100% and the “amount of the virus remaining in the lung tissue (PCR)” value ([3]; mouse, in vivo) was “lowest virus titer”. The “clinical symptoms after SIV challenge” value ([3]; mouse, in vivo) was “very mild symptoms”, the “lung lesions at autopsy” value ([3]; mouse, in vivo) was “mild lung lesions” and the “weight loss after SIV challenge” value ([3]; mouse, in vivo) was “very slight”. For the same compound, the “abnormal lesions due to fed materials (liver, stomach, spleen, kidney, heart, small intestine, large intestine)” value ([3]; mouse, in vivo) was “not observed”, the “SI (selectivity index), NDV” value (NDV; CC50/IC50) was >19 and the IC50 (NDV; avian paramyxovirus 1, Vero, 72 h) was 526 µM. The water solubility [10] was “slightly high”, the “SI (selectivity index), PRV” value (PRV; CC50/IC50) was >110.9 and the IC50 (PRV; Rotavirus C, Vero, 72 h) was ≤ 100 µM. The IC50 (PRV) was 90.2 µM, the “SI (selectivity index), PEDV” value ([4]; CC50/IC50) was >25.1 and the IC50 ([4]; Porcine epidemic diarrhea virus, 48 h) was 398 µM. For the same compound, the “SI (selectivity index), SIV” value ([5]; CC50/IC50) was >13.4 and the IC50 ([5]; MDCK, 96 h) was 748 µM.
